From patent publication US5422350A, “Nitrogen substituted acridine and cytochrome P450 inhibitors and methods of use” (priority 1992, dated 1995)

Assays:
[1] = Single-dose pharmacokinetic and metabolic disposition study of [14C]tacrine HCl in human male volunteers; format: in vivo; conditions: for mean cumulative fecal recovery of 14C activity / mean cumulative urinary recovery of 14C activity / mean total recovery: 5760 min
Description: Plasma and red blood cells (RBC) were collected predose and for 48 hours postdose. Urine and feces were collected predose and for 96 hours postdose. Urine and plasma samples were analyzed directly by liquid scintillation spectrometry while RBC and fecal samples were solubilized prior to counting. […] Metabolic profiling of urine was performed by HPLC radioactivity detection. Metabolites were identified by HPLC/photodiode array/mass spectrometry.

[2] = Irreversible protein binding of 14C-tacrine-derived radioactivity, rat liver microsomes; conditions: 60 min
Description: Total reaction volume was 3 mL. Reactions were stopped by freezing in liquid nitrogen or dry-ice acetone. […] D. J. Waxman and L. Axaroff, "Phenobarbital induction of cytochrome P-450 Gene Expression", BIOCHEM J, Vol. 281, pp. 577-592 (1992); P. Soucek and I. Gut, supra.
C. N. Martin and R. C. Garner: "Covalent Binding In Vitro and In Vivo" in BIOCHEMICAL TOXICOLOGY: A PRACTICAL APPROACH, Eds. K. Snell and B. Mullock, IRL, Wash. D.C. pp. 109-126 (1987).

[3] = I induced Rat, with NADPH, N = 3
[4] = MC induced Rat, with NADPH, N = 3
[5] = Noninduced Rat, with NADPH, N = 3
[6] = PB induced Rat, with NADPH, N = 3

For Cl.Nc1c2c(nc3ccccc13)CCCC2.O [Tacrine, 1,2,3,4-tetrahydro-9-acridinamine monohydrate monohydrochloride], the “Mean AUC(O-tldc) for tacrine, 1-, 2-, and 4-hydroxytacrine as part of total mean plasma radioactivity AUC(O-tldc)” value ([1]; 10 mg oral) was “approximately 3%”, the “Mean AUC(O-tldc) for tacrine, 1-, 2-, and 4-hydroxytacrine as part of total mean plasma radioactivity AUC(O-tldc)” value ([1]; 40 mg oral) was ~4% and the “mean cumulative fecal recovery of 14C activity” value ([1]; 10-mg oral) was 23.2 % of dose. The “mean cumulative urinary recovery of 14C activity” value ([1]; 10-mg oral) was 56.5 % of dose, the mean total recovery ([1]; 10-mg oral) was 79.4% and the “mean plasma total radioactivity AUC(O-tldc), dose proportionality” value ([1]; 10 and 40 mg oral) was “increased in a dose proportional manner”. For the same molecule, the “mean AUC(O-tldc), dose proportionality” value ([1]; 10 and 40 mg oral, plasma) was “increased greater than dose proportionally”, the “difference in metabolic profiles between dose levels” value ([1]; 10 vs 40 mg, urine) was “No apparent differences” and the “mean cumulative fecal recovery of 14C activity” value ([1]; 40-mg oral) was 20.8%. The “mean cumulative urinary recovery of 14C activity” value ([1]; 40-mg oral) was 54.1%, the mean total recovery ([1]; 40-mg oral) was 74.9% and the Tmax ([1]; human, plasma, po, read-out: Time to maximum plasma concentration (tmax)) was ~2 h. The “polar radioactive components, of urinary radioactivity” value ([1]; urine through 24 hours) was 67%, the “unchanged drug excreted in urine” value ([1]; urine through 24 hours) was “only trace amounts of unchanged drug excreted” and the “Percent Bound” value [2, 3] was 4.62 ± 0.73%. The “Tacrine equivalents irreversibly bound to 1 mg microsomal protein” value (shortened to “Tacrine equivalents irreversibly bound”) [2, 3] was 0.042 ± 0.004 nmol, the “Tacrine equivalents irreversibly bound” value ([2]; I induced Rat, without NADPH) was 0.003 nmol and the “Percent Bound” value [2, 4] was 14.5 ± 0.37%. For the same molecule, the “Tacrine equivalents irreversibly bound” value [2, 4] was 0.139 ± 0.010 nmol, the “Tacrine equivalents irreversibly bound” value ([2]; MC induced Rat, without NADPH) was 0.003 nmol and the “Percent Bound” value [2, 5] was 5.97 ± 0.68%. The “Tacrine equivalents irreversibly bound” value [2, 5] was 0.041 ± 0.001 nmol, the “Tacrine equivalents irreversibly bound” value ([2]; Noninduced Rat, without NADPH) was 0.003 nmol and the “Percent Bound” value [2, 6] was 4.49 ± 0.85%. The “Tacrine equivalents irreversibly bound” value [2, 6] was 0.034 ± 0.006 nmol, the “Tacrine equivalents irreversibly bound” value ([2]; PB induced Rat, without NADPH) was 0.002 nmol and the “Tacrine equivalents irreversibly bound” value ([2]; Table 3, MC induced Rat, NADPH, N = 3) was 0.139 ± 0.010 nmol.
